The values that follow come from patent US20230167073A1 (Teijin Pharma Limited, priority 2020, published 2023).

Where only a bound is given, the exact number is not on record here.

The test deals with T1, Human TRPC6 (Homo sapiens, UniProt Q9Y210).
T1 construct: expressed in transfected cells
T1 sequence (Q9Y210 1-931): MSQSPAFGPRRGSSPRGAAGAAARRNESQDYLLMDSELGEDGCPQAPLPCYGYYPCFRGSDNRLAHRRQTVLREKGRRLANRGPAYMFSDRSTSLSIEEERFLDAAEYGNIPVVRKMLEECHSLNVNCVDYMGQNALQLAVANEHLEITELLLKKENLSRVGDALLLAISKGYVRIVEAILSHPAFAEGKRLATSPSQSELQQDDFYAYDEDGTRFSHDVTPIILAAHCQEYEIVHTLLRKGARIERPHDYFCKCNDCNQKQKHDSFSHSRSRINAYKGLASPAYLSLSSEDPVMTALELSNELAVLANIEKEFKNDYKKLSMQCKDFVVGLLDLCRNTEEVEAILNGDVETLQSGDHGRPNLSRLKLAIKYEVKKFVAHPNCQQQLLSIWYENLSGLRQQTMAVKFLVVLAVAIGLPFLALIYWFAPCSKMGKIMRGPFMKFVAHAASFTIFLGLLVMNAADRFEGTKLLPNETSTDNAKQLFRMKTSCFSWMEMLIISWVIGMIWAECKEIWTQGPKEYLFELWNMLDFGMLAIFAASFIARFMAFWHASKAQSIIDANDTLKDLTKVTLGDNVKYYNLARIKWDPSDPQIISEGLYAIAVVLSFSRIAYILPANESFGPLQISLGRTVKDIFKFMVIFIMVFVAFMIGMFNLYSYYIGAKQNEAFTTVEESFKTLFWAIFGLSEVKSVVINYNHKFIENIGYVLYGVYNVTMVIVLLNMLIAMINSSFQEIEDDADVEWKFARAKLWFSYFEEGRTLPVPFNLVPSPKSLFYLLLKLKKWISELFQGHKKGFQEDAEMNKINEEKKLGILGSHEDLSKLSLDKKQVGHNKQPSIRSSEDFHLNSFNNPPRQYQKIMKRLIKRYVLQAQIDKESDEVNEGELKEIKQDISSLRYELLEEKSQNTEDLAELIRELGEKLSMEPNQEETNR
Briefly: Evaluation of TRPC6 channel inhibitory activity (2), HEK293 cells with stably introduced human TRPC6, OAG stimulation, FLIPR tetra (Compound Nos. 1293 to 1405). The class given is cell-based. The settings on record: HEK293 cells with stably introduced human TRPC6, OAG 50 μM/0.5% DMSO, read-out: Inhibitory activity (pIC50 class) (converted). The protocol: Evaluation of TRPC6 Channel Inhibitory Activity (2) (Compound Nos. 1293 to 1405)
The activity of the TRPC6 inhibitor was measured by stimulating HEK293 cells, in which human TRPC6 was stably introduced, with OAG (1-Oleoyl-2-acetyl-sn-glycerol, Miliipore Sigma, 06754), using the FLIPR tetra system. The cells were proliferated in a humid environment at 37° C. 5% CO2 using a growth medium (DMEM (Dulbecco's Modified Eagle's Medium) high glucose containing 10% fetal bovine serum, 1×PSGlu (penicillin-streptomycin glutamine), 1×NEAA (Non-essential amino acid), sodium pyruvate and 200 μg/mL hyglomycin. For cell subculture, the cells were proliferated to 70-90% confluence, and gently washed twice with PBS (phosphate-buffered saline) free of calcium and magnesium after removing the medium. Then, the cells were incubated at 37° C. for 5 minutes after adding trypsin (3 mL), peeled off by tapping the flask at the base of the hand, 7 mL of growth medium was added to inactivate trypsin, and then the cells were resuspended. Usually, the cells were separated every 2-3 days to become a cell density of ⅕. The day before evaluation, the cells were seeded in a poly-D-lysine (PDL) coated 384-well plate using a multi-channel pipette or multidrop at a cell density of 1.0-1.5×10^4 cells/25 μL/well. After culturing overnight in a PDL-coated 384 Blackwell plate, a fluorescent dye buffer was added first to the cells and the cells were cultured at room temperature for 90-120 minutes. For preparing 10 mL of fluorescent dye buffer, 9 mL of assay buffer, 1 mL of 10×PBX signal enhancer, and 10 μL of calcium indicator were mixed. Cells treated with the compounds of each level 25 minutes before the stimulation with OAG of TRPC6 agonist were incubated. OAG solution was prepared by adding OAG to assay buffer (Ca ringer solution base: 10 mM HEPES (4-(2-hydroxyethyl)-1-piperazine-ethanesulfonic acid), 4 mM MgCl2, 120 mM NaCl, 5 mM KCl, pH=7.2 (25° C.)+0.1% BSA+2 mM CaCl2)) to give an OAG concentration of 0.2 mM/2% DMSO. The final concentration of OAG added to the cells is 50 μM/0.5% DMSO. A volume of 12.5 μL of OAG solution was added, and activation of TRPC6 channel was measured using the FLIPR tetra system assaying the change in intracellular calcium level as an index. The 180 seconds imaging frame was defined as the background signal, and the subtraction of the background signal from the raw data was used as the fluorescence peak signal. Each fluorescence peak signal is standardized using an OAG-induced signal and buffer-induced signal as 100% and 0%, respectively. The inhibition rate obtained by plotting the peak signal after the addition of the compounds of each level was analyzed by a four-parameter logistic regression to quantify the inhibition rate in the logarithm of the inverse of the effective concentration which gives a 50% inhibition rate (pIC50). The intensity was expressed by the above-mentioned symbols (+, ++, +++).
Regarding `Cn1nc(C2CC2)cc1Oc1cc(Cl)cnc1-c1ccc([C@H](F)CN)cn1` [compound 1371, (2S)-2-[6-[5-chloro-3-(5-cyclopropyl-2-methylpyrazol-3-yl)oxypyridin-2-yl]pyridin-3-yl]-2-fluoroethanamine], the IC50 was below 10 nM. The same measure for `Cn1nc(-c2ccccn2)cc1Oc1cc(Cl)ccc1-c1ccc(CN)cn1` [compound 1340, [6-[4-chloro-2-(2-methyl-5-pyridin-2-ylpyrazol-3-yl)oxyphenyl]pyridin-3-yl]methanamine]: below 10 nM; for `Cn1nc([C@H]2CCOC2)cc1Oc1cc(Cl)ccc1-c1ncc([C@H](F)CN)cn1` [compound 1344, (2S)-2-[2-[4-chloro-2-[2-methyl-5-[(3R)-oxolan-3-yl]pyrazol-3-yl]oxyphenyl]pyrimidin-5-yl]-2-fluoroethanamine]: above 1000 nM; for `Cc1cc(Oc2cc(Cl)ccc2-c2ncc(CN)cn2)cc(N2CCOCC2)n1` [compound 1315, [2-[4-chloro-2-(2-methyl-6-morpholin-4-ylpyridin-4-yl)oxyphenyl]pyrimidin-5-yl]methanamine]: 10 to 1000 nM. As for `Cc1cc(Oc2cc(Cl)ccc2-c2ccc([C@H](O)CN)cn2)cc(N2CCOCC2)n1` [compound 1396, (1S)-2-amino-1-[6-[4-chloro-2-(2-methyl-6-morpholin-4-ylpyridin-4-yl)oxyphenyl]pyridin-3-yl]ethanol], the IC50 was 10 to 1000 nM. For the compound `Cn1nc(-c2ccccn2)cc1Oc1cc(C#N)ccc1-c1ncc([C@@H](F)CN)cn1` [compound 1295, 4-[5-[(1R)-2-amino-1-fluoroethyl]pyrimidin-2-yl]-3-(2-methyl-5-pyridin-2-ylpyrazol-3-yl)oxybenzonitrile], the IC50 was below 10 nM. Turning to `Cc1cc(Oc2cc(Cl)cnc2-c2ncc(CCN)cn2)cc(N2CCOCC2)n1` [compound 1385, 2-[2-[5-chloro-3-(2-methyl-6-morpholin-4-ylpyridin-4-yl)oxypyridin-2-yl]pyrimidin-5-yl]ethanamine], the IC50 is 10 to 1000 nM.

For the compound `Cn1nc(C2CCOCC2)cc1Oc1cc(Cl)ccc1-c1ccc([C@@H](F)CN)cn1` [compound 1387, (2R)-2-[6-[4-chloro-2-[2-methyl-5-(oxan-4-yl)pyrazol-3-yl]oxyphenyl]pyridin-3-yl]-2-fluoroethanamine], the IC50 was below 10 nM.

In the case of `Cn1nc(C2CCOCC2)cc1Oc1cc(Cl)ccc1-c1ccc(CN)cn1` [compound 1361, [6-[4-chloro-2-[2-methyl-5-(oxan-4-yl)pyrazol-3-yl]oxyphenyl]pyridin-3-yl]methanamine], the IC50 is below 10 nM. Take `Cn1nc(C2CC2)cc1Oc1cc(F)ccc1-c1ncc([C@@H](F)CN)cn1` [compound 1382, (2R)-2-[2-[2-(5-cyclopropyl-2-methylpyrazol-3-yl)oxy-4-fluorophenyl]pyrimidin-5-yl]-2-fluoroethanamine]: the IC50 is 10 to 1000 nM. As for `Cn1nc(-c2ccccc2)nc1Oc1cc(Cl)ccc1-c1ncc(CN)cn1` [compound 1364, [2-[4-chloro-2-[(2-methyl-5-phenyl 1,2,4-triazol-3-yl)oxy]phenyl]pyrimidin-5-yl]methanamine], the IC50 was above 1000 nM.

Consider `Cc1nc(Oc2cc(Cl)ccc2-c2ncc([C@@H](F)CN)cn2)cc(N2CCOCC2)n1` [compound 1374, (2R)-2-[2-[4-chloro-2-(2-methyl-6-morpholin-4-ylpyrimidin-4-yl)oxyphenyl]pyrimidin-5-yl]-2-fluoroethanamine], for which the IC50 was 10 to 1000 nM. In the case of `Cn1nc(C2CCOCC2)cc1Oc1cc(Cl)ccc1-c1ncc(CCN)cn1` [compound 1390, 2-[2-[4-chloro-2-[2-methyl-5-(oxan-4-yl)pyrazol-3-yl]oxyphenyl]pyrimidin-5-yl]ethanamine], the IC50 was 10 to 1000 nM. Regarding `Cn1nc([C@H]2CCCO2)cc1Oc1cc(C#N)ccc1-c1ccc(CCN)cn1` [compound 1317], the IC50 was below 10 nM.

In the case of `Cn1nc(-c2ccccn2)cc1Oc1cc(C#N)ccc1-c1ccc([C@@H](F)CN)cn1` [compound 1301, 4-[5-[(1R)-2-amino-1-fluoroethyl]pyridin-2-yl]-3-(2-methyl-5-pyridin-2-ylpyrazol-3-yl)oxybenzonitrile], the IC50 was below 10 nM. With `Cc1nc(Oc2cc(C#N)ccc2-c2ncc([C@H](F)CN)cn2)cc(N2CCOCC2)n1` [compound 1403, 4-[5-[(1S)-2-amino-1-fluoroethyl]pyrimidin-2-yl]-3-(2-methyl-6-morpholin-4-ylpyrimidin-4-yl)oxybenzonitrile], the IC50 was 10 to 1000 nM. As for `Cn1nc(C2CC2)cc1Oc1cc(Cl)ccc1-c1ncc([C@H](F)CN)cn1` [compound 1347, (2S)-2-[2-[4-chloro-2-(5-cyclopropyl-2-methylpyrazol-3-yl)oxyphenyl]pyrimidin-5-yl]-2-fluoroethanamine], the IC50 is 10 to 1000 nM. For `Cn1nc(C2CCOCC2)cc1Oc1cc(Cl)ccc1-c1ncc([C@@H](O)CN)cn1` [compound 1389, (1R)-2-amino-1-[2-[4-chloro-2-[2-methyl-5-(oxan-4-yl)pyrazol-3-yl]oxyphenyl]pyrimidin-5-yl]ethanol], the IC50 was 10 to 1000 nM. Turning to `COc1nc(-c2ccc(C#N)cc2Oc2cc(-c3ccccn3)nn2C)ncc1[C@H](O)CN` [compound 1328, 4-[5-[(1S)-2-amino-1-hydroxyethyl]-4-methoxypyrimidin-2-yl]-3-(2-methyl-5-pyridin-2-ylpyrazol-3-yl)oxybenzonitrile], the IC50 is 10 to 1000 nM. `Cn1nc(C2CC2)cc1Oc1cc(C#N)ccc1-c1ncc([C@H](F)CN)cn1` [compound 1367, 4-[5-[(1S)-2-amino-1-fluoroethyl]pyrimidin-2-yl]-3-(5-cyclopropyl-2-methylpyrazol-3-yl)oxybenzonitrile]: the IC50 is below 10 nM. With `Cc1cc(Oc2cc(Cl)ccc2-c2ncc([C@H](F)CN)cn2)cc(N2CCOCC2)n1` [compound 1337, (2S)-2-[2-[4-chloro-2-(2-methyl-6-morpholin-4-ylpyridin-4-yl)oxyphenyl]pyrimidin-5-yl]-2-fluoroethanamine], the IC50 was below 10 nM. Turning to `Cn1nc(-c2ccccn2)cc1Oc1cc(Cl)ccc1-c1ncc([C@@H](F)CN)cn1` [compound 1325, (2R)-2-[2-[4-chloro-2-(2-methyl-5-pyridin-2-ylpyrazol-3-yl)oxyphenyl]pyrimidin-5-yl]-2-fluoroethanamine], the IC50 is below 10 nM. Consider `Cc1cc(Oc2cc(C#N)ccc2-c2ncc(CN)cn2)nc(N2CCOCC2)n1` [compound 1298, 4-[5-(aminomethyl)pyrimidin-2-yl]-3-(6-methyl-2-morpholin-4-ylpyrimidin-4-yl)oxybenzonitrile], for which the IC50 was 10 to 1000 nM.
